Results published in ChEMBL document CHEMBL4396971, “Discovery of potent and orally bioavailable indazole-based glucagon receptor antagonists for the treatment of type 2 diabetes” (Bioorg Med Chem Lett, 2019).
The source made the active and inactive calls. The rule behind the calls is not given here.

What was measured:
Glucagon receptor [1] = target: T1, Glucagon receptor (Homo sapiens, UniProt P47871); test: Inhibition of human full length GCGR transfected in HEK293 cells assessed as reduction in glucagon-induced cAMP response by LANCE TR-FRET assay; assay type: functional, cell-based
T1 sequence (P47871 whole entry): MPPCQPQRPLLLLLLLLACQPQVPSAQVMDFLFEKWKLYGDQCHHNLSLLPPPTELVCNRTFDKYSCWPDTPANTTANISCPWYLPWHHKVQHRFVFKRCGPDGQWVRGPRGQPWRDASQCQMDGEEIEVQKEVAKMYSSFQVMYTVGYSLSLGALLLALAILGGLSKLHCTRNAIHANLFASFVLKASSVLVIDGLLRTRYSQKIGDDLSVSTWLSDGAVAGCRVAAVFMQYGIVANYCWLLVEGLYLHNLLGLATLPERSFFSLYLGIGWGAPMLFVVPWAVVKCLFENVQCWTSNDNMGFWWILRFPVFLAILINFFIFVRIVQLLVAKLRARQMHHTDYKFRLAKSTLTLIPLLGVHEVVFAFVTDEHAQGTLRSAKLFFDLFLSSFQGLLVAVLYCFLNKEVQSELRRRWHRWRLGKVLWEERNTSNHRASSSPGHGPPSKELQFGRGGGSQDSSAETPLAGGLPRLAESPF

[2] = Clearance in C57 mouse at 5 mg/kg, iv or 20 mg/kg, po; assay type: ADME, organism-based; settings: in vivo
Cytochrome P450 2D6 = Cytochrome P450 2D6 (Homo sapiens, UniProt P10635); test: Inhibition of CYP2D6 (unknown origin) using dextromethorphan as substrate; assay type: ADME
Chain of Cytochrome P450 2D6 (P10635 whole entry): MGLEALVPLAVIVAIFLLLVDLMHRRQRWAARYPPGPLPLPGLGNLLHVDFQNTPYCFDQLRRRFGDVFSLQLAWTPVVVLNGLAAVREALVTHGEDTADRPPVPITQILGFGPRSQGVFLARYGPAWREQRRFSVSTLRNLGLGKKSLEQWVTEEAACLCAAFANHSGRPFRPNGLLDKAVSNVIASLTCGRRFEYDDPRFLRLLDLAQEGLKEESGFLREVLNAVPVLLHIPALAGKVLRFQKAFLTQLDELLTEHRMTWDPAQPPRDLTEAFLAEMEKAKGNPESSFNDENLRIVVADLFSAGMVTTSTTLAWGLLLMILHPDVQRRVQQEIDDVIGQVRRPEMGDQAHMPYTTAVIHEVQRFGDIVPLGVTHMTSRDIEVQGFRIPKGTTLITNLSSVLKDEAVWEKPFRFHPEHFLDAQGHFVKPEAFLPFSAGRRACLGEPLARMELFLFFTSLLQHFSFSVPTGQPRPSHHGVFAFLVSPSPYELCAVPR

[3] = Volume of distribution at steady state in Sprague-Dawley rat at 2 mg/kg, iv or 10 mg/kg, po; assay type: ADME, organism-based; settings: in vivo, read-out: Vdss
Cytochrome P450 1A2 = target: T2, Cytochrome P450 1A2 (Homo sapiens, UniProt P05177); test: Inhibition of CYP1A2 (unknown origin) using phenacetin as substrate; assay type: ADME
T2 sequence (P05177 whole entry): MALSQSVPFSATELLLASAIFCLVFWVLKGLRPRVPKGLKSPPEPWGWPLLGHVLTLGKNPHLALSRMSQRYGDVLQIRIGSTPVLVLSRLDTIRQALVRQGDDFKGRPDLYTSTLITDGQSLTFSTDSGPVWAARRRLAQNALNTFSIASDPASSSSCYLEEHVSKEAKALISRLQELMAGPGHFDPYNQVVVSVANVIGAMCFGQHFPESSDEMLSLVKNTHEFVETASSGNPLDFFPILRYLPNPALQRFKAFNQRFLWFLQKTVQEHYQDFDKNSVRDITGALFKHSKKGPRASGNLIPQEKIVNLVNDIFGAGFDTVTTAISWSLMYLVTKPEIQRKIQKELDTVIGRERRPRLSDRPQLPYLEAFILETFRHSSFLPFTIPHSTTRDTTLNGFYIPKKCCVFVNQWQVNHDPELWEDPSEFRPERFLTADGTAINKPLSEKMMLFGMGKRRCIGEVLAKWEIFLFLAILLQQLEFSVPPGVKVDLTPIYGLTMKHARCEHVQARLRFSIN

Cytochrome P450 3A4 [4] = target: T3, Cytochrome P450 3A4 (Homo sapiens, UniProt P08684); test: Inhibition of CYP3A4 (unknown origin) using testosterone as substrate; assay type: ADME
T3 sequence (P08684 whole entry): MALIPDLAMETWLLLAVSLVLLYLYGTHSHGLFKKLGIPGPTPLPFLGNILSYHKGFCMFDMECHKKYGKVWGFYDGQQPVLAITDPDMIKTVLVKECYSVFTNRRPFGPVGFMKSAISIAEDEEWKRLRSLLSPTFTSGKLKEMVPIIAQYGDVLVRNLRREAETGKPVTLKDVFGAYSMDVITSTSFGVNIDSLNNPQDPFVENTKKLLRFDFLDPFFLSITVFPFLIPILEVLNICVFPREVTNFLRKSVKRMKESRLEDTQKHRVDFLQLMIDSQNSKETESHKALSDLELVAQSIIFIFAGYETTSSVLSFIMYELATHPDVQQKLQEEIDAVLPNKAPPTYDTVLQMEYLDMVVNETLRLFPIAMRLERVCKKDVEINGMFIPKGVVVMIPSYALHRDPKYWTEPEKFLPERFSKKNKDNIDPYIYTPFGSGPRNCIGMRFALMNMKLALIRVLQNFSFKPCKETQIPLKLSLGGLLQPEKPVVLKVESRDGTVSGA

[5] = Cmax in Sprague-Dawley rat at 2 mg/kg, iv or 10 mg/kg, po; assay type: ADME, organism-based; settings: in vivo
[6] = Stability in rat liver microsomes assessed as parent compound remaining at 1 uM incubated for 10 mins; assay type: ADME, Microsome; settings: read-out: Stability
[7] = Protein binding in human plasma at 1 uM; assay type: ADME, cell-free; settings: read-out: PPB
[8] = Volume of distribution at steady state in C57 mouse at 5 mg/kg, iv or 20 mg/kg, po; assay type: ADME, organism-based; settings: in vivo, read-out: Vdss
[9] = Half life in Sprague-Dawley rat at 2 mg/kg, iv; assay type: ADME, organism-based; settings: in vivo
[10] = Half life in C57 mouse at 5 mg/kg, iv; assay type: ADME, organism-based; settings: in vivo
[11] = AUClast in Sprague-Dawley rat at 2 mg/kg, iv or 10 mg/kg, po; assay type: ADME, organism-based; settings: in vivo
[12] = Stability in mouse liver microsomes assessed as parent compound remaining at 1 uM incubated for 10 mins; assay type: ADME, Microsome; settings: liver microsomes, read-out: Stability
[13] = Clearance in Sprague-Dawley rat at 2 mg/kg, iv or 10 mg/kg, po; assay type: ADME, organism-based; settings: in vivo
[14] = AUClast in C57 mouse at 5 mg/kg, iv or 20 mg/kg, po; assay type: ADME, organism-based; settings: in vivo
Cytochrome P450 3A4 [15] = target: T3, Cytochrome P450 3A4; test: Inhibition of CYP3A4 (unknown origin) using midazolam as substrate; assay type: ADME
[16] = Half life in C57 mouse at 20 mg/kg, po; assay type: ADME, organism-based; settings: in vivo
[17] = Half life in Sprague-Dawley rat at 10 mg/kg, po; assay type: ADME, organism-based; settings: in vivo
[18] = AUClast in dog at 2 mg/kg, iv or 10 mg/kg, po; assay type: ADME, organism-based, Canis lupus familiaris; settings: in vivo
[19] = Stability in dog liver microsomes assessed as parent compound remaining at 1 uM incubated for 10 mins; assay type: ADME, Canis lupus familiaris, Microsome; settings: liver microsomes, read-out: Stability
[20] = Half life in dog at 10 mg/kg, po; assay type: ADME, organism-based, Canis lupus familiaris; settings: in vivo
Cytochrome P450 2C19 = Cytochrome P450 2C19 (Homo sapiens, UniProt P33261); test: Inhibition of CYP2C19 (unknown origin) using S-Mephenytoin as substrate; assay type: ADME
Chain of Cytochrome P450 2C19 (P33261 whole entry): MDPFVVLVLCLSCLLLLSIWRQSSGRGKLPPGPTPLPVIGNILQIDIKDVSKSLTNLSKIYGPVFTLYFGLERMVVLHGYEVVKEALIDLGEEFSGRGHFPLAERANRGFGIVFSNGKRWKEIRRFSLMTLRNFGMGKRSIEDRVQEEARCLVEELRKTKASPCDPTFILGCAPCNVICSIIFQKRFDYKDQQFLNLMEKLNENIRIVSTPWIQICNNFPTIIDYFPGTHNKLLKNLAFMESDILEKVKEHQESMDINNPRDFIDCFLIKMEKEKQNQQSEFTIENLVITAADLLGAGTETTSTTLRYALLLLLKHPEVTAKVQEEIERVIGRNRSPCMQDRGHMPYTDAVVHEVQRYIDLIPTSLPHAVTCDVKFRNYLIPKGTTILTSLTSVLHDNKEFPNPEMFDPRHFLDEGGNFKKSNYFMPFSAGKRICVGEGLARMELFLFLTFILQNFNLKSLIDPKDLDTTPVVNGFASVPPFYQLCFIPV

[21] = Cmax in dog at 2 mg/kg, iv or 10 mg/kg, po; assay type: ADME, organism-based, Canis lupus familiaris; settings: in vivo
[22] = Oral bioavailability in C57 mouse at 20 mg/kg; assay type: ADME, organism-based; settings: in vivo
[23] = Oral bioavailability in Sprague-Dawley rat at 10 mg/kg; assay type: ADME, organism-based; settings: in vivo
[24] = Stability in human liver microsomes assessed as parent compound remaining at 1 uM incubated for 10 mins; assay type: ADME, Microsome; settings: read-out: Stability
[25] = Antagonist activity at GCGR in dog hepatocytes assessed as inhibition of glucagon-induced cAMP by LANCE TR-FRET assay; assay type: cell-based, Canis lupus familiaris
[26] = Clearance in dog at 2 mg/kg, iv or 10 mg/kg, po; assay type: ADME, organism-based, Canis lupus familiaris; settings: in vivo
[27] = Volume of distribution at steady state in dog at 2 mg/kg, iv or 10 mg/kg, po; assay type: ADME, organism-based, Canis lupus familiaris; settings: in vivo, read-out: Vdss
Cytochrome P450 2C9 = Cytochrome P450 2C9 (Homo sapiens, UniProt P11712); test: Inhibition of CYP2C9 (unknown origin) using tolbutamide as substrate; assay type: ADME
Chain of Cytochrome P450 2C9 (P11712 whole entry): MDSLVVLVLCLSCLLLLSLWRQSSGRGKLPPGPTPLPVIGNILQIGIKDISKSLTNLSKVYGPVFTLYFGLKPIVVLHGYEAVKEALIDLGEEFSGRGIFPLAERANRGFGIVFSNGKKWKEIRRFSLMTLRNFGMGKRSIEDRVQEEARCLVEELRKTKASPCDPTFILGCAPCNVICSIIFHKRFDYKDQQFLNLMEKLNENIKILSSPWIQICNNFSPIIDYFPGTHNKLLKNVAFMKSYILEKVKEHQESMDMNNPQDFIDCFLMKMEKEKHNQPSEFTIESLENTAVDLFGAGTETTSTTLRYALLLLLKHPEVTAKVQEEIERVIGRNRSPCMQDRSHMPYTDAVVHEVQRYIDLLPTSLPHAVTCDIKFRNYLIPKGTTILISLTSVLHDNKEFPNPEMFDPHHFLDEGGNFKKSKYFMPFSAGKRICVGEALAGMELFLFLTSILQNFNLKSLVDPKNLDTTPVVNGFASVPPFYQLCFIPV

[28] = Half life in dog at 2 mg/kg, iv; assay type: ADME, organism-based, Canis lupus familiaris; settings: in vivo
[29] = Oral bioavailability in dog at 10 mg/kg; assay type: ADME, organism-based, Canis lupus familiaris; settings: in vivo
[30] = Cmax in C57 mouse at 5 mg/kg, iv or 20 mg/kg, po; assay type: ADME, organism-based; settings: in vivo
Canis familiaris [31] = test: Antidiabetic activity in Beagle dog assessed as reduction in blood glucose AUC at 10 mg/kg, po administered via gavage as single dose 90 mins prior to glucagon challenge by glucometer analysis; assay type: functional, organism-based; settings: Canis lupus familiaris
Canis familiaris [32] = test: Antidiabetic activity in Beagle dog assessed as reduction in blood glucose level at 10 mg/kg, po administered via gavage as single dose 90 mins prior to glucagon challenge measured up to 60 mins post glucagon challenge by glucometer analysis; assay type: functional, organism-based; settings: Canis lupus familiaris
Canis familiaris [33] = test: Antidiabetic activity in Beagle dog assessed as reduction in blood glucose AUC administered orally via gavage as single dose 90 mins prior to glucagon challenge by glucometer analysis; assay type: functional, organism-based; settings: Canis lupus familiaris
Glucagon receptor [34] = target: T1, Glucagon receptor; test: Potency index, ratio of Ki of 3-(4-((1R)-1-(4-methoxy-5-(2-methyl-4-(trifluoromethyl)phenyl)-1H-indazol-1-yl)-3-methylbutyl)benzamido)propanoic acid to Ki of compound for human full length GCGR transfected in HEK293 cells assessed as reduction in glucagon-induced cAMP response by LANCE TR-FRET assay; assay type: functional, cell-based

| SMILES | clearance [2] [L/h/kg] | IC50 (Cytochrome P450 2D6) [µM] | Vd [3] [L/kg] | IC50 (Cytochrome P450 1A2) [µM] | IC50 (Cytochrome P450 3A4 [4]) [µM] | Cmax [5] [µM] | remaining at 10 min, 1 µM [6] [%] | fraction unbound at 1 µM [7] | Vd [8] [L/kg] | half-life [9] [h] | half-life [10] [h] | AUC(0-t) [11] [µM·h] | remaining at 10 min, 1 µM [12] [%] | clearance [13] [L/h/kg] | AUC(0-t) [14] [µM·h] | IC50 (Cytochrome P450 3A4 [15]) [µM] | half-life [16] [h] | half-life [17] [h] | remaining at 10 min, 1 µM [19] [%] | remaining at 10 min, 1 µM [24] [%] | also measured |
| --- | --- | --- | --- | --- | --- | --- | --- | --- | --- | --- | --- | --- | --- | --- | --- | --- | --- | --- | --- | --- | --- |
| CC(C)C[C@H](c1ccc(C(=O)NCCC(=O)O)cc1)n1ncc2cc(-c3ccc(C(F)(F)F)cc3)ccc21 | – | – | – | – | – | – | – | – | – | – | – | – | – | – | – | – | – | – | – | – | Ki (Glucagon receptor [1]): 0.096 µM |
| Cc1cc(C(F)(F)F)ccc1-c1cc2cn([C@@H](CC(C)C)c3ccc(C(=O)NCCC(=O)O)cc3)nc2cc1C | 0.287 | > 10 | 2.94 | > 10 | > 10 | 1.1 | 113 | 0.0001 | 1.56 | 3.7 | 4.5 | 9.2 | 79 | 0.762 | 90.1 | > 10 | 5 | 4.3 | 68 | 57 | AUC(0-t) [18]: 468 µM·h; half-life [20]: 20.2 h; IC50 (Cytochrome P450 2C19): > 10 µM; Cmax [21]: 35 µM; bioavailability [22]: 74.4%; bioavailability [23]: 32.3%; Ki [25]: 0.65 µM; clearance [26]: 0.0114 L/h/kg; Vd [27]: 0.26 L/kg; IC50 (Cytochrome P450 2C9): > 10 µM; half-life [28]: 21.7 h; bioavailability [29]: 45%; Cmax [30]: 7.9 µM |
| Cc1cc2c(cnn2[C@@H](CC(C)C)c2ccc(C(=O)NCCC(=O)O)cc2)cc1-c1ccc(C(F)(F)F)cc1Cl | 0.148 | > 10 | 3.32 | > 10 | > 10 | 0.5 | 67 | 0.0001 | 1.45 | 3.6 | 7.8 | 5.6 | 99 | 1.12 | 254 | > 10 | 9.1 | 7.1 | 65 | 62 | inhibition (Canis familiaris [31]): Active; AUC(0-t) [18]: 544 µM·h; half-life [20]: 18.9 h; IC50 (Cytochrome P450 2C19): > 10 µM; Cmax [21]: 34.1 µM; bioavailability [22]: 121%; bioavailability [23]: 35.4%; Ki [25]: 0.02 µM; clearance [26]: 0.0126 L/h/kg; inhibition (Canis familiaris [32]): Active; Vd [27]: 0.27 L/kg; IC50 (Cytochrome P450 2C9): > 10 µM; half-life [28]: 16 h; bioavailability [29]: 57.3%; inhibition (Canis familiaris [33]): Dose-dependent effect; Cmax [30]: 15.6 µM |
| COc1c(-c2ccc(C(F)(F)F)cc2Cl)ccc2nn([C@H](CC(C)C)c3ccc(C(=O)NCCC(=O)O)cc3)cc12 | – | – | – | – | – | – | 100 | – | – | – | – | – | 76 | – | – | – | – | – | 79 | 116 | – |
| Cc1c(-c2ccc(C(F)(F)F)cc2Cl)ccc2nn([C@@H](CC(C)C)c3ccc(C(=O)NCCC(=O)O)cc3)cc12 | 0.612 | > 10 | 2.46 | > 10 | > 10 | 0.2 | 107 | 0.0001 | 2.24 | 1.9 | 2.8 | 1.4 | 97 | 1.59 | 44.9 | > 10 | 3.1 | 7.7 | 75 | 118 | inhibition (Canis familiaris [31]): Active; Ki (Glucagon receptor [1]): 0.023 µM; AUC(0-t) [18]: 248 µM·h; half-life [20]: 7.3 h; IC50 (Cytochrome P450 2C19): > 10 µM; Cmax [21]: 21.9 µM; bioavailability [22]: 78.6%; bioavailability [23]: 13.2%; Ki [25]: 0.09 µM; clearance [26]: 0.0252 L/h/kg; inhibition (Canis familiaris [32]): Active; Vd [27]: 0.17 L/kg; IC50 (Cytochrome P450 2C9): > 10 µM; half-life [28]: 5.5 h; bioavailability [29]: 35.7%; Cmax [30]: 7.6 µM |
| COc1c(-c2ccc(C(F)(F)F)cc2C)ccc2c1cnn2[C@@H](CC(C)C)c1ccc(C(=O)NCCC(=O)O)cc1 | – | – | – | – | – | – | 81 | – | – | – | – | – | 83 | – | – | – | – | – | 69 | 95 | Ratio Ki (Glucagon receptor [34]): 84 |
| Cc1cc(C(F)(F)F)ccc1-c1ccc2nn([C@@H](CC(C)C)c3ccc(C(=O)NCCC(=O)O)cc3)cc2c1C | – | – | – | – | – | – | 107 | – | – | – | – | – | 50 | – | – | – | – | – | 64 | 110 | – |
